Results taken from PubChem BioAssay AID1053179 (The Scripps Research Institute Molecular Screening Center, 2014).
pIC50: −log10 of the molar value. Activity calls are given as the source filed them.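 Rule for the calls: active = IC50 for loss of cell viability, measured as ATP drop, at or below 10 µM; inactive = the rest.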

Tested on: Jurkat viability, CellTiter-Glo ATP luminescence
Test: Jurkat T cell cytotoxicity, late-stage follow-up, cytotoxicity control for TAAR1 agonist/antagonist project, luminescence, powder samples (AID 1053179)

| Compound | IC50 | pIC50 |
| --- | --- | --- |
| N#Cc1c(C(F)(F)F)cc(-c2ccc(Cl)cc2)nc1SCC(=O)N1CCCCCC1 | > 83.3 µM (inactive) | – |
| CC(CN1CCCC1Cc1ccccc1)C(=O)c1ccc2c(c1)OCCO2 (configuration not stated) | – | 5.44 |
| O=C(CCN1CCC(c2ccccc2)C1)c1ccccc1 (configuration not stated) | – | 5.40 |
| N#Cc1c(C(F)(F)F)cc(-c2ccc(Cl)cc2)nc1SCC(=O)Nc1ncccn1 | 53 µM (inactive) | – |
| Cc1ccc(C(=O)CCN2CCC(c3ccccc3)C2)cc1 (configuration not stated) | – | 5.30 |
| COc1cc(C(=O)CCN2CCC(c3ccccc3)C2)cc(OC)c1OC (configuration not stated) | – | 5.15 |
| N#Cc1c(C(F)(F)F)cc(-c2ccc(Cl)cc2)nc1SCC(=O)N1CCCC1 | > 83.3 µM (inactive) | – |
